Reference: patent publication US10532987B2, “Compounds and methods for inducing browning of white adipose tissue” (GUANGZHOU INSTITUTES OF BIOMEDICINE AND HEALTH, CHINESE …, priority 2015, dated 2020)

How the values were obtained:
white adipose tissue = assay: High fat diet induced obesity mouse model; hematoxylin and eosin staining and UCP1 immunochemistry of adipose tissue; type: in vivo, mice; details: 50 mg/kg daily gavage, compared with control group
Experimental: 8-week-old male mice (57BL/6J) were housed in metabolism cages and maintained on a 12 h lightdark cycle at 23° C. and fed high fat diet (HFD) (21.9 kJ/g, 60% of energy as fat, 20% of energy as protein, 20% of energy as carbohydrate; D12492; Research Diet, New Brunswick, N.J., USA) for 8 weeks. Then, diets induced obese mice were randomized into two groups according to glucose levels and body weight and gavaged with daily indicated drugs (50 mg/kg) or vehicle. Food intake and body weight was measured weekly. All experiments with animals were approved by the Animal Care and Use Committee of Guangzhou Institute of Biomedicine and Health, Chinese Academy of Sciences.
Hematoxylin and eosin staining was performed as the standard protocol (see reference 15). As to the results, please see FIG. 1 (left panel) using compound 1 as the test compound.
Wash sections in dH2O three times for 5 minutes each. Incubate sections in 3% hydrogen peroxide for 10 minutes. Wash sections in dH2O twice for 5 minutes each, and then wash sections in wash buffer for 5 minutes. Block each section with 100-400 μl blocking solution for 1 hour at room temperature. Remove blocking solution and add 100-400 μl primary UCP1 antibody to each section. Incubate overnight at 4° C. Remove antibody solution and wash sections in wash buffer three times for 5 minutes each. […]

Ucp1 = assay: UCP1 luciferase assay (Ucp1 up-regulation in differentiated inguinal adipocytes of Ucp1-luciferase knock-in mice); type: cell-based; details: Mus musculus, Adipocyte, 48 h; at 3 μM; 2 days treatment; luciferase activity; read-out: Ucp1 activation fold/corresponding concentration
Experimental: TEST EXAMPLE 1 UCP1 Luciferase Assay
Evaluating Compounds that Induce Ucp1 Up-Regulation
Ucp1-luciferase knock-in mice will be housed in cages and fed on standard chow diets (the detailed procedures please see reference 14). The 8-week-old mice will be killed by the cervical dislocation and put into 75% alcohol for 5 minutes. The inguinal adipose tissue will be dissected out and transferred to the three 10-cm petri dishes and washed with PBS for three times. The adipose tissue will be dissected and minced on a 10-cm petri dish for several minutes and then pipetted into 20 ml 0.1% collagenase solution in 50 ml conical tubes and digested at 37° C. for 1 hour. Next, 20 ml culture medium will be added to terminate the digestion and centrifuged for 10 minutes at 1000 rpm respectively. The supernatants will be removed and the pellets re-suspended in 10 mL culture medium and plated into 10-cm plates. The cells will be left to adhere to the plates overnight and the culture medium will be changed every other day. The confluent cells will be trypsinized, counted and plated to 24-well plate (5×10^4 cells/well). The cells will be washed and re-fed the next day (as day −2). Two days later (day 0), the cells will usually become confluent and be induced to differentiate with MDIR medium. On day 2, the medium will be changed to IR medium and re-fed every 2 days. Complete differentiation is usually achieved by day 10. On day 10, the medium will be changed to the culture medium of 10% FBS/DMEM with indicated drugs along with the positive and negative controls for 2 days. The media will be removed and the cells washed with 1 ml PBS per well three times. Then 100 μl lysis buffer will be used to lyse the cells at 4° C. for 1 hour. 30 μl culture medium, 30 μl cell lysates and 60 μl Steady-Glo® Reagent were added to a well of 96-well-plate and the luminescence will be measured using a luminometer. The protein concentration will be determined using 20 μl cell lysates and specific activity of luciferase will be tabulated and data analyzed.

COc1ccc(-c2csc(Nc3ccccn3)n2)cc1OC [Compound 1, 4-(3,4-dimethoxyphenyl)-N-(pyridin-2-yl)thiazol-2-amine]
browning of adipose tissue (hematoxylin and eosin staining and UCP1 immunochemistry) (white adipose tissue; 16-week-old obese mice (57BL/6J) induced by high fat diet for 8 weeks): promotes browning of adipose tissue | adipose tissue cell size and cell number (white adipose tissue; 16-week-old obese mice induced by high fat diet for 8 weeks): reduced cell size and increased cell number | fold induction at 3 µM (Ucp1): 5.2
